Test results as given in patent EP4786458A1, “ANALGESIC COMPOUND, PREPARATION METHOD THEREFOR, AND USE THEREOF” (West China Hospital, Sichuan University, priority 2023, dated 2025).

Columns and labels:
[1] = Loss of tail withdrawal reflex (LOTWR) in rats, single intravenous injection, dose escalation for efficacy and severe adverse reactions; format: in vivo, SD rats; conditions: rat, in vivo, single intravenous injection, minimum dose resulting in serious adverse reactions / minimum effective dose, class symbol, read-out: The safety therapeutic index
Description: (§1) Using the loss of tail withdrawal reflex (LOTWR) in rats as an indicator, the potent analgesic effect of the compounds according to the present invention was evaluated.
(§2) 1.1 Experimental animals: Adult male SD rats weighing between 220-300 g were selected for the experiment. The rats were housed in sawdust-bedded cages with a temperature of 25+1°C, humidity ranging from 40% to 60%, and a 12-hour light/12-hour dark cycle. Each cage contained no more than 5 rats, with free access to water and food.
(§3) • (1) The compound of the present invention, along with the positive control drug remifentanil and the negative control (vehicle), were administered in fixed volumes. A dose escalation approach was employed to determine the minimum effective dose at which the compound of the present invention produces potent analgesic effects, as well as the minimum dose at which severe adverse reactions first appear. • (2) LOTWR lasting for 30 seconds was used as the criterion for generating potent analgesic effects. During the experiment, drugs were administered via the tail vein of rats, with a dosage volume of 0.6 mL per rat and a dosage rate of 0.02 mL/s. Subsequently, an alligator clip was applied at a distance of 1 cm from the base of the rat's tail, clamping once longitudinally and once transversely before being left in place. Meanwhile, the distal end of the alligator clip was continuously oscillated (30 times/min) to continuously generate stimulation. […] When all results were "no LOTWR" after 10 minutes of testing (5 trials), the test was stopped and recorded as "ineffective." • (3) All compounds would undergo a dose escalation for efficacy evaluation, starting from 1 mg/kg (due to the high potency of remifentanil, the lowest dose was set at 1 µg/kg), followed by 5 mg/kg, 10 mg/kg, 20 mg/kg, and so on (increasing by 20 mg/kg increments after 20 mg/kg). The dose escalation would be stopped when rats show signs of death, and the lowest effective dose and the lowest dose at which severe adverse reactions occur would be recorded throughout the process. In this study, severe adverse reactions are defined as apnea, generalized tonic rigidity, convulsions, opisthotonus, seizures, etc.
(§4) 1.3 Evaluation indicators: the minimum effective dose; the minimum dose resulting in serious adverse reactions; the safety therapeutic index = "the minimum dose resulting in serious adverse reactions" / "the minimum effective dose".

[2] = tested on: rats; experiment: as above; format: in vivo, SD rats; conditions: Rattus norvegicus, single intravenous injection (tail vein), LOTWR lasting for 30 seconds as criterion, class symbol, read-out: The minimum effective dose
Description: as §1, §2, §3, §4

SMILES | selectivity ratio [1] | minimal effective dose [2] [mg/kg]
Cc1ccc(NCC(=O)OCc2ccsc2)c(N(C)C)c1 [Example 1] | > 4 | ≤ 10
Cc1ccc(NCC(=O)OCc2cccs2)c(N(C)C)c1 [Example 2] | 2 to 4 | > 30
CN(C)c1ccccc1NCC(=O)OCc1cccs1 [Example 4] | > 4 | ≤ 10
CN(C)c1cc(F)ccc1NCC(=O)OCc1cccs1 [Example 5] | ≤ 2 | 20 to 30
Cc1ccc(OCC(=O)OCc2cccs2)c(N(C)C)c1 [Example 6] | 2 to 4 | ≤ 10
Cc1ccc(NCC(=O)OCc2ccco2)c(N(C)C)c1 [Example 7] | 2 to 4 | 20 to 30
Cc1ccc(NCC(=O)OCc2cccs2)cc1N(C)C [Example 8] | > 4 | 10 to 20
Cc1ccc(NCC(=O)NCc2ccno2)c(N(C)C)c1 [Example 9] | > 4 | ≤ 10
Cc1ccc(OCC(=O)NCc2cccs2)c(N(C)C)c1 [Example 10] | > 4 | ≤ 10
Cc1ccc(NCC(=O)NCc2ccco2)c(N(C)C)c1 [Example 11] | > 4 | ≤ 10
Cc1ccc(OCC(=O)NCc2ccco2)c(N(C)C)c1 [Example 12] | > 4 | 10 to 20
CN(C)c1cccc(NCC(=O)OCc2cccs2)c1 [Example 13] | ≤ 2 | > 30
Cc1ccc(SCC(=O)OCc2cccs2)c(N(C)C)c1 [Example 14] | 2 to 4 | > 30
CN(C)c1ccccc1NCC(=O)OCc1ccsc1 [Example 15] | 2 to 4 | > 30
Cc1ccc(NCC(=O)NCc2ccoc2)c(N(C)C)c1 [Example 16] | ≤ 2 | > 30
Cc1ccc(NCC(=O)NCc2ccns2)c(N(C)C)c1 [Example 17] | > 4 | 10 to 20
Cc1ccc(NCC(=O)OCc2ccoc2)c(N(C)C)c1 [Example 18] | ≤ 2 | > 30
Cc1ccc(NCC(=O)NCc2cnsc2)c(N(C)C)c1 [Example 19] | 2 to 4 | > 30
Cc1ccc(SCC(=O)OCc2ccco2)c(N(C)C)c1 [Example 20] | ≤ 2 | > 30

SMILES | selectivity ratio [1] | minimal effective dose [2] [mg/kg]
Cc1ccc(NCC(=O)NCc2ccco2)cc1N(C)C [Example 21] | ≤ 2 | > 30
Cc1ccc(NCC(=O)NCc2ncc[nH]2)c(N(C)C)c1 [Example 22] | ≤ 2 | > 30
Cc1ccc(OCC(=O)OCc2ccco2)c(N(C)C)c1 [Example 23] | ≤ 2 | > 30
Cc1ccc(OCC(=O)OCc2cccs2)cc1N(C)C [Example 24] | ≤ 2 | > 30
Cc1ccc(NCC(=O)NCc2ccns2)cc1N(C)C [Example 25] | 2 to 4 | 10 to 20
Cc1ccc(NCC(=O)NCc2ccccc2)c(N(C)C)c1 [Example 27] | ≤ 2 | ≤ 10
Cc1cc(C)cc(CNC(=O)CNc2ccc(C)cc2N(C)C)c1 [Example 28] | ≤ 2 | 20 to 30
Cc1ccc(NCC(=O)NCc2cccs2)cc1N(C)C [Example 29] | ≤ 2 | > 30
Cc1ccc(NCC(=O)OCc2ccoc2)cc1N(C)C [Example 30] | 2 to 4 | > 30
Cc1ccc(NCC(=O)NCc2cc(C)nn2C)c(N(C)C)c1 [Example 31] | 2 to 4 | 10 to 20
Cc1ccc(NCC(=O)OCc2cc(C)nn2C)c(N(C)C)c1 [Example 32] | > 4 | ≤ 10
Cc1ccc(NCC(=O)NCc2ccnn2C)c(N(C)C)c1 [Example 33] | ≤ 2 | > 30
Cc1ccc(NCC(=O)OCc2ccnn2C)c(N(C)C)c1 [Example 34] | > 4 | ≤ 10
Cc1ccc(NCC(=O)OCc2ccnn2C)cc1N(C)C [Example 35] | > 4 | ≤ 10
Cc1ccc(OCC(=O)NCc2ccsc2)c(N(C)C)c1 [Example 36] | 2 to 4 | 10 to 20
Cc1cc(COC(=O)CNc2ccc(C)c(N(C)C)c2)n(C)n1 [Example 37] | > 4 | ≤ 10
Cc1ccc(NCC(=O)OCc2ccsc2)cc1N(C)C [Example 38] | ≤ 2 | > 30
Cc1ccc(NCC(=O)OCc2ccco2)cc1N(C)C [Example 39] | > 4 | 10 to 20
Cc1ccc(NCC(=O)OCc2ccno2)c(N(C)C)c1 [Example 40] | ≤ 2 | > 30
